Assay results from patent US20230414607A1, “METHODS OF TREATMENT” (BOW RIVER LLC, priority 2017, published 2023).
Where “and” joins values, the source holds several entries; their conditions need not be identical. Identical values can stand only once. Like-named read-outs stand apart in the source and are kept apart here.

Assays:
[1] = Example 1: pharmacokinetic study with posaconazole and lurasidone in obese subjects; type: in vivo, human
Description: Inventors studied 6 obese male and female subjects (ages 18-50, BMI>35) taking Posaconazole oral tablets (300 mg qd) and Lurasidone (20 mg qd). Body weights and BMI measurements for the 6 subjects are provided below in Table 1.
Subjects were dosed with Lurasidone alone on Day 1, then subsequently dosed to steady-state Posaconazole levels, with a loading dose of 300 mg twice a day on Day 2 and 300 mg once a day thereafter over a period of 14 days. Posaconazole administration was then stopped and Lurasidone (20 mg qd) administered 2, 4, and 6 days after administration had ceased (studies days 17, 19, and 21 respectively).

[2] = target: T1, CYP3A4 (Homo sapiens, UniProt P08684); settings: for predicted lurasidone AUC levels (reported as GMR) greater than baseline: human
Source text: Blood plasma levels may be described in various ways, such as area under the plasma concentration curve (AUC) and peak plasma concentration (Cmax). Baseline levels and posaconazole interaction levels for CYP3A4 substrate drugs may be compared using the geometric mean ratio (GMR) of AUC and Cmax. […] GMR is the standard industry and regulatory method for assessing the ratio of change of a pharmacokinetic variable (such as AUC) relative to its own baseline value (e.g., in a patient that was not treated with posaconazole). Once the level of substrate drug (AUC or Cmax) during co-administration with posaconazole and a CYP3A4 substrate drug is known, a function can be derived using conventional pharmacological methods to estimate how the AUC or plasma level of the CYP3A4 substrate drug is expected to decay over time after stopping administration of posaconazole. Such a function can be used to provide a plot of the decay GMR of AUC (or Cmax) of the CYP3A4 substrate drug versus time due to its interaction with posaconazole, based on the stated half-life of posaconazole.
The expected DDI decay curve can also be calculated for Cmax GMR by substituting Cmax during co-administration for AUC during co-administration in equation 1. As used herein, “expected levels” and “predicted levels” and the like, refer to the AUC or Cmax GMR values calculated using equation 1.

[3] = test system: CYP3A; test: Example 2: lurasidone pharmacokinetics during and after posaconazole (drug-drug interaction); type: in vivo; settings: human; for half-life: plasma, oral, read-out: Lurasidone elimination half-life, arithmetic mean ± S.E. (converted)
[4] = target: T1, CYP3A4; settings: in vivo
Source text: The reduced dose of the CYP3A4 substrate drug may be administered with posaconazole, the day after stopping posaconazole, or two or more days (e.g., as described herein) after stopping posaconazole.
To mitigate this risk, in some embodiments the administration of the CYP3A4 substrate drug is contraindicated not just for co-administration with posaconazole, but the administration is also contraindicated for a period of time (e.g., 2 or more days) after stopping posaconazole beyond the label-prescribed delay of one day (i.e., contraindication for co-administration of the CYP3A4 substrate drug and posaconazole). In some embodiments, the present methods provide for administering the CYP3A4 substrate drug as soon as it is safe to do so, e.g., for time periods exceeding about 1 day, as described herein. […] This accounts for the need to treat the patient with the CYP3A4 substrate drug with no more delay (after stopping posaconazole) than is necessary, so that the risks of leaving such a patient untreated are minimized as much as possible.

[5] = cited from earlier work
[6] = cited from earlier work; remark: listed apart in the source
[7] = 2 days after stopping posaconazole

T1 sequence (P08684 whole entry): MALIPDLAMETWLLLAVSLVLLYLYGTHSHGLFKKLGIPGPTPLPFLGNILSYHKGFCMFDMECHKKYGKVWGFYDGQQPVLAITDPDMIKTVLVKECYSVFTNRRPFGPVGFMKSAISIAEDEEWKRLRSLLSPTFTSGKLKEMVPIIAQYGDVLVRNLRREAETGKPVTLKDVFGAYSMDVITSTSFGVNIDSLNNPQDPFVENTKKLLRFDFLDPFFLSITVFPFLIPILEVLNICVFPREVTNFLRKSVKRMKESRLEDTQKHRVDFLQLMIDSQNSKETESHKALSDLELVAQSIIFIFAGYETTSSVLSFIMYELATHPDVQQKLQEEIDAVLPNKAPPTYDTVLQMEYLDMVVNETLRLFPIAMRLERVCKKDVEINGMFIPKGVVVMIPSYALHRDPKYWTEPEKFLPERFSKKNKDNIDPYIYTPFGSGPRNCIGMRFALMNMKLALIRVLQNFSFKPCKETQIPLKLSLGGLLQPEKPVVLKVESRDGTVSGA

Q: What does the source list for `O=C1[C@@H]2[C@H]3CC[C@H](C3)[C@@H]2C(=O)N1C[C@@H]1CCCC[C@H]1CN1CCN(c2nsc3ccccc23)CC1` [lurasidone]?
A: Lurasidone AUC Ratio relative to Day 1 ([1]; Day 17, 2 days after Posaconazole was stopped, individual obese subjects): 2.98 and 1.78; AUC ([1]; both sexes, human, in vivo, 20 mg, Day 17, 2 days after Posaconazole was stopped, individual obese subjects): 196 ng·h/mL; post-Posaconazole treatment mean AUC ratio values for Lurasidone ([1]; both, human, in vivo): 3.6-4.3 ×; post-Posaconazole treatment mean AUC ratios of Lurasidone, times higher than the baseline ([1]; both, human, in vivo): about 3 times; day after stopping posaconazole on which predicted AUC reaches baseline [2]: ~9 days; predicted lurasidone AUC levels (reported as GMR) greater than baseline ([2]; 1 day after stopping posaconazole): about 400%; predicted lurasidone AUC levels (reported as GMR) greater than baseline [2, 7]: about 300%; Corrected Cmax, arithmetic mean ± standard error ([3]; in vivo, 20 mg): 19.8 ± 4 ng/mL; Cmax ([3]; in vivo, 20 mg, Corrected Cmax, arithmetic mean ± standard error): 17.1 ± 1.6 ng/mL; half-life ([3]; 20 mg, Normal, Day 1 (baseline)): 9.4 h; half-life ([3]; 20 mg, Normal, Day 20 (posaconazole given Days 4-17)): 39 ± 3 h; half-life ([3]; 20 mg, Normal, Day 23 (posaconazole given Days 4-17)): 48 ± 5 h; half-life ([3]; 20 mg, Normal, Day 26 (posaconazole given Days 4-17)): 50 ± 7 h; half-life ([3]; 20 mg, Normal, Day 30 (posaconazole given Days 4-17)): 45 ± 9 h; half-life ([3]; 20 mg, Obese, Day 1 (baseline)): 10.9 h; half-life ([3]; 20 mg, Obese, Day 20 (posaconazole given Days 4-17)): 48 ± 4 h; half-life ([3]; 20 mg, Obese, Day 23 (posaconazole given Days 4-17)): 52 ± 3 h; half-life ([3]; 20 mg, Obese, Day 26 (posaconazole given Days 4-17)): 61 ± 4 h; half-life ([3]; 20 mg, Obese, Day 30 (posaconazole given Days 4-17)): 71 ± 5 h; half-life ([3]; Normal, Day 14 (with posaconazole)): 37 ± 4 h; half-life ([3]; Obese, Day 14 (with posaconazole)): 38 ± 2 h; actual AUC levels, fold greater than expected [4, 7]: about 2 fold; actual AUC levels, fold greater than expected ([4]; 3 days after stopping posaconazole): 2-3 fold; actual AUC levels, fold greater than expected ([4]; 4 days after stopping posaconazole): 2.5-3.5 fold; increase in the AUC of lurasidone associated with somnolence ([5]; about 3 fold increase in GMR): about 300%; increase in AUC of lurasidone associated with akathisia ([5]; about 4 fold increase in GMR): 400%; normal baseline AUC: mean AUC0-tau ([6]; 120 mg lurasidone in the fed state after a 350 kcal meal): about 743 ng*h/mL; normal baseline Cmax: mean Cmax ([6]; 120 mg lurasidone in the fed state following a 350 kcal meal): about 160 ng/mL
